Where “and” joins values, the source holds several entries; their conditions need not be identical. Equal values may be shown once. Read-outs that look alike come from different tables or passages of the source.
Experiments:
RPS10 = biological target: T1, RPS10 (Homo sapiens, UniProt P46783); assay type: binding
T1 construct: made in house; host or cells: E. coli BL-21

eIF1A = biological target: T2, eIF1A (Homo sapiens, UniProt P47813); assay type: binding; details: for fluorescence ratio, eIF1A: background-corrected, relative to DMSO or lowest 1Ai concentration, replicate columns
T2 construct: His-bdSUMO (cleaved yes); made in house; host or cells: E. coli BL-21
T2 sequence (P47813 whole entry): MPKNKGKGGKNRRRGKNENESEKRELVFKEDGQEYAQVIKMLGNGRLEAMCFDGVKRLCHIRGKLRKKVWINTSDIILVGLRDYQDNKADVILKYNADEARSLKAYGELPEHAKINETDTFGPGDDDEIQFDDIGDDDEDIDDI

[1] = system: IRF7 5'UTR firefly luciferase reporter in HEK293T cells; details: 20 µM;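 further: luciferase signal corrected by a co-transfected GFP reporter for transfection efficiency, read after overnight compound exposure, with Long and Short reporters differing in 5'UTR length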
Protocol: For the effect on ribosomal scanning, we used two firefly luciferase reporter genes that differ in their 5'UTR length (Fig. 1C). […] Cells were transfected with these reporters along with a GFP reporter gene used to normalize transfection efficiency. After an overnight 1Ai or DMSO (vehicle control) exposure, luciferase and GFP expression were measured, and normalized activity was determined.
For the reference vs IRF7 5'UTR luciferase reporter assay, HEK239T cells in a 12-well plate were transfected with the previously described IRF7 5'UTR or reference firefly luciferase reported genes (Sehrawat et al, [2019]) (100 ng/well) together with GFP (20 ng/well) that served as an internal control by CaCl2 transfection. After 6 h, half of the growth medium was replaced with a medium containing the different compounds, reaching a final concentration of 20 µM. Twenty-four hours after transfection, transfection efficiency was evaluated using GFP fluorescence intensity (Cytation 5, ex/em: 470/525). Cells were harvested in 50 µL Reported lysis buffer (RLB) and put on a shaker for 10 min. From each well 5 µL were taken in duplicates and tested by luminometer.

[2] = system: cap-proximal AUG GFP reporter in HEK293T cells; assay type: cell-based; details: GFP WB densitometry; 20 µM overnight; dmso 0.965946;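 further: ratio of upstream to downstream AUG initiation products on GFP Western blot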
eIF1A-RPS10 interaction = biological target: T3, eIF1A-RPS10 interaction (Homo sapiens, UniProt P46783+P47813); assay: Split-Renilla luciferase eIF1A-RPS10 interaction screen, dose-response; assay type: biochemical; details: summary table; read-out: IC50 concentration (µM), IC50 screen
T3 construct: made in house; host or cells: E. coli BL21 (PRSFduet); unpurified lysate supernatant
T3 sequence (P47813 whole entry, one chain of several): as the sequence (P47813 whole entry) above
Method in brief: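 Expression at 16 °C overnight after 0.5 mM IPTG induction; sonication and centrifugation in TKE buffer; lysate supernatant checked for Renilla activity; compound testing against the eIF1A–RPS10 split-luciferase pair, including fragment-only controls.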

NSP1 = NSP1 (Severe acute respiratory syndrome coronavirus 2, UniProt P0DTD1)

SMILES: Cc1ccc(C)n1-c1cc([N+](=O)[O-])ccc1N1CCN(C(=O)c2ccccc2)CC1 [1Ai-9008]
- RPS10 fluorescence ratio to control (RPS10; 1Ai conc. 0.25 uM): 1
- RPS10 fluorescence ratio to control (RPS10; 1Ai conc. 0.5 uM): 0.9583
- RPS10 fluorescence ratio to control (RPS10; 1Ai conc. 1 uM): 0.9477
- RPS10 fluorescence ratio to control (RPS10; 1Ai conc. 2 uM): 0.9687
- RPS10 fluorescence ratio to control (RPS10; 1Ai conc. 4 uM): 0.9804
- RPS10 fluorescence ratio to control (RPS10; 1Ai conc. 8 uM): 0.9597
- RPS10 fluorescence ratio to control (RPS10; 1Ai conc. 16 uM): 0.9394
- RPS10 fluorescence ratio to control (RPS10; 1Ai conc. 32 uM): 1.009
- RPS10 fluorescence ratio to control (RPS10; 1Ai conc. 256 uM): 1.212
- IC50 (RPS10; read-out: IC50 (line under RPS10 binding data)): 9.9 µM
- IC50 (RPS10; read-out: RPS10 IC50): 9.9 µM
- IC50 (RPS10; summary table, fluorescence binding assay, read-out: IC50 concentration (µM), RPS10): 9.9 µM
- fluorescence ratio, eIF1A (eIF1A; 1Ai conc. 0.25 uM): 0.8521 and 1
- fluorescence ratio, eIF1A (eIF1A; 1Ai conc. 0.5 uM): 0.8814 and 1.016
- fluorescence ratio, eIF1A (eIF1A; 1Ai conc. 1 uM): 0.8675 and 0.9766
- fluorescence ratio, eIF1A (eIF1A; 1Ai conc. 2 uM): 1.139 and 0.9182
- fluorescence ratio, eIF1A (eIF1A; 1Ai conc. 4 uM): 1.153 and 0.9421
- fluorescence ratio, eIF1A (eIF1A; 1Ai conc. 8 uM): 0.9831 and 0.8499
- fluorescence ratio, eIF1A (eIF1A; 1Ai conc. 16 uM): 0.926 and 0.7716
- fluorescence ratio, eIF1A (eIF1A; 1Ai conc. 32 uM): 0.9353 and 0.7367
- fluorescence ratio, eIF1A (eIF1A; 1Ai conc. 64 uM): 1.131 and 0.7322
- fluorescence ratio, eIF1A (eIF1A; 1Ai conc. 256 uM): 1.254 and 0.8135
- WT eIF1A IC50 (eIF1A; fluorescence binding): No binding
- IC50 concentration (µM), WT eIF1A (eIF1A; summary table, fluorescence binding assay): No binding
- Reference vs IRF7 (Final data, Fig. 1E) ([1]; 1/Result, relative to DMSO): 0.775
- LONG (summary - All), normalized to DMSO ([1]; Long reporter, individual replicates, outliers excluded, DMSO = 1): 0.81 and 0.44 and 0.52 and 0.48
- SHORT (summary - All), normalized to DMSO ([1]; Short reporter, individual replicates, outliers excluded, DMSO = 1): 0.66 and 0.59 and 0.24 and 0.26
- Long: Normalized to average DMSO ([1]; data section, Long reporter, GFP-corrected, per experiment, includes values excluded as outliers): 0.8135 and 0.4384 and 0.5246 and 0.4822
- average ( long vs short ratio) ([1]; summary - All): 1.290
- US/DS ratio, average [2]: 0.5847
- IC50 (eIF1A-RPS10 interaction): 27 µM
- GFP reporter ratio nsp1/gfp, avg (NSP1): 0.4707
- GFP reporter ratio nsp1/gfp, rep 1 (NSP1): 0.4454
- GFP reporter ratio nsp1/gfp, rep 2 (NSP1): 0.4961
- gfp signal, mean of duplicate wells (NSP1): 2743.5 and 4942
- nsp1 signal, mean of duplicate wells (NSP1): 1361 and 2201
- ratio (nsp1/gfp) (NSP1): 0.496 and 0.445

Reference: PMC12216609, “Inhibitors of eIF1A-ribosome interaction unveil uORF-dependent regulation of translation initiation and antitumor and antiviral effects” (The EMBO Journal, 2025)
